Assay results reported in paper PMC4700033, “Synergistic properties of cellulases from Clostridium cellulovorans in the presence of cellobiose” (AMB Express, 2016).

How the values were obtained:
Experiment in all cases: DNS reducing sugar assay on acid-swollen cellulose
Format in all cases: biochemical
[1] = target: T1, ExgS (Clostridium cellulovorans, UniProt D9SS72); conditions: 5 mg/ml cellobiose; 0.5 % acid-swollen cellulose, 20 nmol/ml enzyme alone, 50 mM acetate pH 6.3, 2.5 mM CaCl2, 37 C
T1 construct: gene Clocel_2823; dockerin-bearing cellulosomal subunit
T1 sequence (D9SS72 1-727): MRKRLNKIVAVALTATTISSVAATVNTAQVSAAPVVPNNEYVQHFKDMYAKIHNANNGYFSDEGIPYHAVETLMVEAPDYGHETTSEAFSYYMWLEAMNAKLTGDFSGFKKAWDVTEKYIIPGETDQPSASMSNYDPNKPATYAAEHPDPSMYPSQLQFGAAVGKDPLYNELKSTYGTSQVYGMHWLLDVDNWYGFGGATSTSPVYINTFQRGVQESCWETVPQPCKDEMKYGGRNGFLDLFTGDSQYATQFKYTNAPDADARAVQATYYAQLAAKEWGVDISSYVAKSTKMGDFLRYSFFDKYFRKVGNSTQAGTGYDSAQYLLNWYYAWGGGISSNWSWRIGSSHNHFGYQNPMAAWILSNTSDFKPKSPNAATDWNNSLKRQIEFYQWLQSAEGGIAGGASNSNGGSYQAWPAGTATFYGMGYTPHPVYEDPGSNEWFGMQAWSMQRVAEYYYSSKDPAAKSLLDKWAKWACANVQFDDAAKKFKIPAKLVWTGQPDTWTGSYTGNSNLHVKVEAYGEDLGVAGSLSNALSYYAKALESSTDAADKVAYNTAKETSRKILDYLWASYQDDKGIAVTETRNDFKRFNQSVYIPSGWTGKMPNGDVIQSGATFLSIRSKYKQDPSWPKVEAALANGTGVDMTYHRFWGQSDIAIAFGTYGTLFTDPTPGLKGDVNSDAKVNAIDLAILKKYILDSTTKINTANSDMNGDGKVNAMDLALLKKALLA
Excerpt: DNS reducing sugar assay on acid-swollen cellulose on ExgS

[2] = target: T2, EngK (Clostridium cellulovorans, UniProt D9SS70); conditions: 5 mg/ml cellobiose; 0.5 % acid-swollen cellulose, 20 nmol/ml enzyme alone, 50 mM acetate pH 6.3, 2.5 mM CaCl2, 37 C; cellobiose also main product
T2 construct: gene Clocel_2821
T2 sequence (D9SS70 1-892 limits assumed): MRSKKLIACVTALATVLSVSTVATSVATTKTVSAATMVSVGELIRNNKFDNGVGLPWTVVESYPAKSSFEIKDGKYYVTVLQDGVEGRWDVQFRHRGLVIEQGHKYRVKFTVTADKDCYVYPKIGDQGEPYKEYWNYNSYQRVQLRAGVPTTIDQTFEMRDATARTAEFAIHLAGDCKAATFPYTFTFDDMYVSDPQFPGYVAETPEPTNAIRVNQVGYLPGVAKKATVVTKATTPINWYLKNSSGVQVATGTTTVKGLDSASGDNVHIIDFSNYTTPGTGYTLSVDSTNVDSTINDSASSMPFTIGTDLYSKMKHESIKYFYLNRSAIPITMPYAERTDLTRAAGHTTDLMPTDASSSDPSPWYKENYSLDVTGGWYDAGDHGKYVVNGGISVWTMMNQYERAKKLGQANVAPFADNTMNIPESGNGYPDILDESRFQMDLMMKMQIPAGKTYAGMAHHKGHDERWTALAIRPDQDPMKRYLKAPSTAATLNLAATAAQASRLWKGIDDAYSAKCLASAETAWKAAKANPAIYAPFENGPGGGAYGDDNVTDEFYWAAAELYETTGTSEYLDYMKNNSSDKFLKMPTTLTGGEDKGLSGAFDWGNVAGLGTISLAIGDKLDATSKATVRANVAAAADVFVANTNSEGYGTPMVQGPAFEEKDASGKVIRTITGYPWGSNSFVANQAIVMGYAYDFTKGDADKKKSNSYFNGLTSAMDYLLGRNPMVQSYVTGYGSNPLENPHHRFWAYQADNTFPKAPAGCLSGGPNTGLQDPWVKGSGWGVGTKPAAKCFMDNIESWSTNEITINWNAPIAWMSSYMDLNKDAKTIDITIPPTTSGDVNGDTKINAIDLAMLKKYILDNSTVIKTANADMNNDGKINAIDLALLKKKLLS
Excerpt: DNS reducing sugar assay on acid-swollen cellulose on EngK

[3] = target: T3, EngH (Clostridium cellulovorans, UniProt O65987); conditions: 5 mg/ml cellobiose; 0.5 % acid-swollen cellulose, 20 nmol/ml enzyme alone, 50 mM acetate pH 6.3, 2.5 mM CaCl2, 37 C
T3 construct: HisTrap purified from supernatant; trigger factor tag removed by HRV-3C protease
T3 sequence (O65987 14-715): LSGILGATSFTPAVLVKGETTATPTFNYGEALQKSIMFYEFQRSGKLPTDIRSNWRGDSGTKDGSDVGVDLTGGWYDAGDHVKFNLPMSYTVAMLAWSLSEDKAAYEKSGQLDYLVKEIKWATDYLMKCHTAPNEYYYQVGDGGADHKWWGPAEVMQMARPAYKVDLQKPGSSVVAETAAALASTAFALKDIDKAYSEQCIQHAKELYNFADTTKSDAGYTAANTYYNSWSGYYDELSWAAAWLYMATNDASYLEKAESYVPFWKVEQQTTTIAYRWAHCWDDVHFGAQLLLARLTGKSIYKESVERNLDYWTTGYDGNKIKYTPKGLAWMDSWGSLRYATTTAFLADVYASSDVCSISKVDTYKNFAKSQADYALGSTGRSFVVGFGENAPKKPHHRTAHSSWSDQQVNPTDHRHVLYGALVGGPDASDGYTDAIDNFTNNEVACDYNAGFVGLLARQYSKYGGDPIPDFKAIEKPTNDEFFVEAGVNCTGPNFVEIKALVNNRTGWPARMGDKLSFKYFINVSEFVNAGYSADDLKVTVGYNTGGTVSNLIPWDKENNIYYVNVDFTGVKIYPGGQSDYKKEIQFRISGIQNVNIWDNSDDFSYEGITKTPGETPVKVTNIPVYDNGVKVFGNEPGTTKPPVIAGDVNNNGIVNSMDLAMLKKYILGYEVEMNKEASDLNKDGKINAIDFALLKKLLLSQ
Excerpt: DNS reducing sugar assay on acid-swollen cellulose on EngH

## OC[C@H]1O[C@@H](O[C@H]2[C@H](O)[C@@H](O)C(O)O[C@@H]2CO)[C@H](O)[C@@H](O)[C@@H]1O (stereo partly drawn) [cellobiose]
[1]
  Inhibition rate (%): 98.5%
[2]
  Inhibition rate (%): 90.1%
[3]
  Inhibition rate (%): 98.7%
